{"source": "patent US20230255972A1", "about": "“PYRIMIDINE COMPOUND-CONTAINING COMBINATION TO BE USED IN TUMOR TREATMENT” (TAIHO PHARMACEUTICAL CO., LTD., priority 2020, published 2023)", "key": {"[1]": {"target": "T1, EGFR [d746-750/T790M] (Homo sapiens, UniProt P00533, DEL746-750/T790M)", "T1 construct": "purchased Carna Biosciences, Inc", "T1 sequence (P00533 with tags, fused parts or gaps DEL746-750/T790M)": "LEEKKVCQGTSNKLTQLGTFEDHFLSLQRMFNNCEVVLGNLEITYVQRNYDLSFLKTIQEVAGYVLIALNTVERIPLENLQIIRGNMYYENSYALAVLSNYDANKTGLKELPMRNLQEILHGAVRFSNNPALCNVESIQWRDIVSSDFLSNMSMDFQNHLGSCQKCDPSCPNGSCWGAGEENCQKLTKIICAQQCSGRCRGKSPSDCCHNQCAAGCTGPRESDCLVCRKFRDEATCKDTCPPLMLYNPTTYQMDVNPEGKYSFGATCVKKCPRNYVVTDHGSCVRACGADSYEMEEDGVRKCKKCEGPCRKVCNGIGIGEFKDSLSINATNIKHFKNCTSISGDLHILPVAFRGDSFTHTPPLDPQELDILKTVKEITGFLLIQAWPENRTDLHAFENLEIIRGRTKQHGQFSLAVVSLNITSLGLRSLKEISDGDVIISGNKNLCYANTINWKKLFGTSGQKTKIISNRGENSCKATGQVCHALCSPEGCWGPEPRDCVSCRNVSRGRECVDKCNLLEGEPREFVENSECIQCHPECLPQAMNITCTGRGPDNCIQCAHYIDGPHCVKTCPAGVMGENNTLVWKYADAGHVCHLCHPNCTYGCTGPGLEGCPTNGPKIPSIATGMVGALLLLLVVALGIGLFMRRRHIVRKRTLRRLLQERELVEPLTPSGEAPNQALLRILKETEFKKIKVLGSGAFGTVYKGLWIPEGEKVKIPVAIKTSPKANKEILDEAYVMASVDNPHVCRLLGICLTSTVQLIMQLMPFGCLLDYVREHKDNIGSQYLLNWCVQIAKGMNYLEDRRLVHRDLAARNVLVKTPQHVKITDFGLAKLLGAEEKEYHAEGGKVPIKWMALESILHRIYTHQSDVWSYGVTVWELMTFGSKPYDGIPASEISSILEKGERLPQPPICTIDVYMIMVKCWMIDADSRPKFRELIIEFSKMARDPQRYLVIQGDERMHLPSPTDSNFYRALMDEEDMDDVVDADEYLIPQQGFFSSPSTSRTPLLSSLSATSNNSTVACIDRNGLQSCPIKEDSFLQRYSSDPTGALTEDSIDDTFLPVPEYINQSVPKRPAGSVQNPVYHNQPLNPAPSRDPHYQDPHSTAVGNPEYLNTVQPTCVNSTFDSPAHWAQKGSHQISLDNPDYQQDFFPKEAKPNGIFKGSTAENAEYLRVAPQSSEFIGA", "assay": "Phosphorylation activity inhibitory effect (in vitro) on mutant EGFR d746-750/T790M", "assay_type": "biochemical", "description": "(§1) Test Example 6 Measurement of Phosphorylation Activity Inhibitory Effect (In Vitro) on Wild-Type and Mutant EGFR\n(§2) The measurement of the in vitro inhibitory activity of a compound against wild-type and mutant EGFR was outsourced to Carna Biosciences, Inc. (Kinase Profiling Book, https://www.carnabio.com/japanese/product/search.cgi?mode=profiling).\n(§3) Specifically, first, the pyrimidine compound of the present invention was diluted stepwise with dimethyl sulfoxide (DMSO). […] To the reaction solution, Termination Buffer was added, so as to terminate the kinase reaction. Finally, using LabChip™ EZ Reader II (PerkinElmer), an unphosphorylated substrate peptide (S) and a phosphorylated peptide (P) were separated and detected according to microchannel capillary electrophoresis.\n(§4) As the pyrimidine compound of the present invention, the compound of Example 11 (Example compound 11) was used."}, "[2]": {"target": "T2, EGFR [L858R] (Homo sapiens, UniProt P00533, L858R)", "T2 construct": "purchased Carna Biosciences, Inc", "T2 sequence (P00533 25-1210 L858R)": "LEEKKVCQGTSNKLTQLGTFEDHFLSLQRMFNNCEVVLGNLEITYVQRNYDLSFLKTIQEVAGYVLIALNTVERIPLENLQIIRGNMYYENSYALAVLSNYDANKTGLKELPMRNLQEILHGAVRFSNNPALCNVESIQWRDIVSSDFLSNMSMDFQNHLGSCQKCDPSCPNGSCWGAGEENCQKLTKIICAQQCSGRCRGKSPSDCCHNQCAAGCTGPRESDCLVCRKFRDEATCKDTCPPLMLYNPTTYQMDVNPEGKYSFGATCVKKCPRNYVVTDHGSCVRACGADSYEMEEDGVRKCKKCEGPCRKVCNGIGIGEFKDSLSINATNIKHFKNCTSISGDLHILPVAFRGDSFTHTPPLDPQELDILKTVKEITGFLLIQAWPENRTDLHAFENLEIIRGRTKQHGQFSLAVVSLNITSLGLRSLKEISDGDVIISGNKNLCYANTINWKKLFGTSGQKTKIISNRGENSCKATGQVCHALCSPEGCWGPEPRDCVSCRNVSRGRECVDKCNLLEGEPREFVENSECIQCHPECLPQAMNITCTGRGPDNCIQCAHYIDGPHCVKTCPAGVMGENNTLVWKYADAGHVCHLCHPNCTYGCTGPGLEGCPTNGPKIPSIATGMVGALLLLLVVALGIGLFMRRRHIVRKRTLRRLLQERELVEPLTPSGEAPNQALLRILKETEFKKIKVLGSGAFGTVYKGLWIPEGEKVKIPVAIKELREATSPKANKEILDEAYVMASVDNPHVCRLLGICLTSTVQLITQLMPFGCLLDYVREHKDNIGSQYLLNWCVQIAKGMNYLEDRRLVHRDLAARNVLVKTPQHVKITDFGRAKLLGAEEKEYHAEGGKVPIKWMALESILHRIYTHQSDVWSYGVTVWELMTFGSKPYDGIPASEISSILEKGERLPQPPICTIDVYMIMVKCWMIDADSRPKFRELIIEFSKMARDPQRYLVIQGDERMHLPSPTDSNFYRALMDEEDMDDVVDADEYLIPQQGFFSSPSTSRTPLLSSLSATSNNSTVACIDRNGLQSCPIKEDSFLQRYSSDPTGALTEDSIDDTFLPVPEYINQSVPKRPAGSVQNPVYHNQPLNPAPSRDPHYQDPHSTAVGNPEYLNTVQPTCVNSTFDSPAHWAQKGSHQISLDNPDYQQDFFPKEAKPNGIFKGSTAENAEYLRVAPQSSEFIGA", "assay": "Phosphorylation activity inhibitory effect (in vitro) on mutant EGFR L858R", "assay_type": "biochemical", "description": "as §1, §2, §3, §4"}, "[3]": {"test_system": "human stomach cancer cell line NCI-N87", "assay": "Combination (in vivo) of pyrimidine compound and capecitabine, NCI-N87 subcutaneous model", "description": "Test Example 18 Combination (In Vivo) of Pyrimidine Compound and Capecitabine\nA human stomach cancer cell line NCI-N87 was obtained from American Type Culture Collection (ATCC). The cell line was cultured in RPMI-1640 (containing 4.5 g/L glucose, 10 mM HEPES and 1 mM sodium pyruvate) (FUJIFILM Wako Pure Chemical Corporation) medium containing 10% fetal bovine serum (FBS) in a 5% CO2 incubator at 37° C.\nThe NCI-N87 cells were resuspended at a concentration of 8×10^7 cells/mL in PBS.\nAn aqueous solution containing 0.1 N HCl and 0.5% HPMC was used as a control."}, "[4]": {"conditions": "day 15, Example 11 6.25 mg/kg/day, day 1-14, p.o."}}, "data": [{"smiles": "C=CC(=O)N1C[C@H](n2c(C#CC3CC3)c(C(=O)N[C@H](C)c3ccccc3)c3c(N)ncnc32)C[C@@H]1C", "note": "[Example 11, 7-((3R,5S)-1-acryloyl-5-methylpyrrolidin-3-yl)-4-amino-6-(cyclopropylethynyl)-N—((R)-1-phenylethyl)-7H-pyrrolo[2,3-d]pyrimidine-5-carboxamide]", "values": [{"measurement": "IC50", "setting": "[1]", "result": 6.8, "unit": "nM"}, {"measurement": "IC50", "setting": "[2]", "result": 0.36, "unit": "nM"}, {"measurement": "Number of Death", "setting": "[3]; Example 11 6.25 mg/kg/day, day 1-14, p.o.", "result": 0}, {"measurement": "TV on Day 15 versus control group (Dunnett's test)", "setting": "[3]; capecitabine and Example 11 po once a day, Days 1-14", "result": "significantly lower TV"}, {"measurement": "T/C (%)", "setting": "[3]; [4]", "result": 47, "unit": "%"}, {"measurement": "Tumor volume (mm^3) day 15 Mean ± S.E.", "setting": "[3]; [4]", "result": "272.43 ± 22.22", "unit": "mm^3"}, {"measurement": "BWC (%) Mean ± S.E.", "setting": "[3]; mouse, in vivo, po, 6.25 mg/kg/day", "result": "6.3 ± 0.9", "unit": "%"}]}]}
